The source of these data is patent publication US8993515B2, “Peptidomimetics comprising N-amino cyclic urea residues and uses thereof” (Valorisation-Recherche, Limited Partnership, priority 2012, dated 2015).

Residues, ends and D or L forms follow the SMILES beside them.

The subject of one experiment is human TF-1 cells. The experiment can be described thus: IL-1β-induced thymocyte (TF-1) proliferation, CyQUANT NF dye. Format: cell-based. The following applies: peptide 1 μM; human IL-1β 25 ng/mL; 48 h. As to the method: Immune cell proliferation was assessed by DNA intercalation of CyQUANT NF® fluorescent dye (Invitrogen, Carlsbad, Calif., USA). Essentially, human TF-1 cells (CRL-2003, American Type Culture Collection) were cultured in complete RPMI 1640 (WISENT Inc., Montréal, Quebec, Canada) supplemented with human GM-CSF (2 ng/ml, PeptroTech, Rocky Hill, N.J., USA). Cells (passage 5 and at least 85% viable, as verified by trypan blue dying) were reincorporated into RPMI 1640 medium deprived of phenol red (Gibco Invitrogen®, Carlsbad, Calif., USA) and of growth factors [i.e. fetal bovine serum (FBS) and GM-CSF] for 18 h and split (5×10^3 cells in 200 μL/well) into 96-well non-adherent flat bottom culture plates (Sarstedt®, Nümbrecht, Germany). Following 15 min pre-incubation with peptide or peptidomimetic (1 μM), the cells were treated with human IL-1β (25 ng/mL, PeproTech®, Rocky Hill, N.J., USA) and re-incubated. After 48 h, the cells were centrifuged for 7 min at 300 g, reincorporated into Hank's Buffered Salt Solution (1×HBSS, 50 μL/well, Gibco Invitrogen®, Carlsbad, Calif., USA) and transferred into a 96-well polystyrene black plate (Corning Incorporated, Corning, N.Y., USA). An additional 50 μL solution made of CyQUANT NF® dye (component A, 1×) and CyQUANT NF™ delivery agent (component B, 1×) in 1×HBSS was added to the cells in each well, which were covered with aluminum foil and incubated for 45 min. Fluorescence intensity was measured using a microplate reader (Perkin Elmer Wallac Envision® 2104; Perkin Elmer®, California, USA) with excitation at 485 nm and emission detection at 530 nm (FITC 485 and FITC 531 filters, respectively). Hexaplicate experiments were repeated three times and results were analyzed by one-way analysis of variance (ANOVA) factoring for treatments, and data are presented as mean±standard error of the mean (SEM).

Experiment [1] deals with NF-κB activation in HEK Blue IL-33/IL-1β sensor cells. The experiment can be described thus: HEK Blue SEAP reporter gene assay of NF-κB activation. Format: cell-based. As to conditions: peptide 1 μM; human IL-1β 2.5 ng/mL; 24 h. As to the method:
Activation of the NF-κB pathway upon interaction with IL-1β (or IL-33) receptor complex at the membrane was assessed via HEK-Blue SEAP reporter gene assay (InvivoGen®, California, USA). Basically, HEK Blue IL-33/IL-1β sensor cells were cultured in growth medium made of complete Dulbecco's modified Eagle medium (DMEM; 4.5 g/L glucose, 2 mM L-glutamine, […], 10% fetal bovine serum, 50 U/mL penicillin, 50 μg/mL streptomycin; Gibco Invitrogen®, Ontario, Canada) supplemented with selection antibiotics (30 μg/mL Blasticidin®, 200 μg/mL HygroGold® and 100 μg/mL Zeocin®; InvivoGen, California, USA). Upon reaching almost 70% confluency, HEK Blue cells were reincorporated into complete DMEM medium and split (2.5×10^4 cells in 180 μL/well) into 96-well membrane-treated flat bottom culture plates (Plate #3595, Corning Life Sciences, Massachusetts, USA). Cells were pretreated with 10 μL of peptide or peptidomimetic (1 μM) for 15 min., after which 10 μL of human IL-1β (2.5 ng/mL, PeproTech®, Rocky Hill, N.J., USA) was added. Following 24 h of incubation, 40 μL of the cells supernatant was added to a UV-transparent 96-well plate (Plate #3635, Corning Life Sciences®, Massachusetts, USA) already filled with 160 μL of resuspended Quanti-Blue® dye (1×, InvivoGen, California, USA). The plate was covered and incubated for 20 min. The level of SEAP was measured by reading absorbance (or optical density, OD) at 620 nm using a multiplate reader equipped with a monochromator (Perkin Elmer Wallac Envision® 2104; Perkin Elmer®, California, USA). Hexaplicate results were normalized over complete DMEM background signal and analyzed by one-way analysis of variance (ANOVA) factoring for treatments, and data are presented as mean±standard error of the mean (SEM).
(Reporter assays use an easily measured gene product as a stand-in for the process of interest.)

Regarding `CC(C)C[C@@H](NC(=O)[C@@H](CCC(=O)O)NC(=O)[C@@H](C(C)C)N1CCN(NC(=O)[C@@H](Cc2ccc(O)cc2)NC(=O)[C@H](N)CCCNC(=N)N)C1=O)C(=O)N[C@H](C)C(N)=O` [[Nai^3]-101.10, D-Arg-D-Tyr-Nai-D-Val-D-Glu-D-Leu-D-Ala-NH2] (HELM PEPTIDE1{[dR].[dY].[CC(C)[C@H](C(=O)[*:2])N1CCN(N[*:1])C1=O].[dE].[dL].[dA].[am]}$$$$V2.0), in the experiment on human TF-1 cells, the “diminished IL-1β-induced proliferation” value is reported as 77%. In addition, the “inhibition of NF-κB activation (OD620)” value in experiment [1] is recorded as 65%.

For “D-Arg-D-Tyr-D-Thr-D-Val-DGlu-D-Leu-D-Ala-NH2 [101.10, reference compound]”, in the experiment on human TF-1 cells, the “diminished IL-1β-induced proliferation” value is 15%. Moreover, the “inhibition of NF-κB activation (OD620)” value in experiment [1] amounted to 77%. For Kineret: a competitive IL-1R antagonist, the “inhibition of NF-κB activation (OD620)” value in experiment [1] came to 100%.
